Experimental data published in paper PMC4728560 (Scientific Reports, 2016).

Assays:
[1] = test system: Bcl-xL inhibition of cBid/Bax; experiment: In vitro reconstitution liposome permeabilization, cBid/Bax with Bcl-xL; type: biochemical; conditions: ANTS/DPX liposomes, 100 nM Bax, 20 nM cBid, pre-incubation pH 9, 45 min, 37 °C, 5 h, pH 7
Text: This purified assay system measures direct interactions in which full-length untagged Bcl-xL inhibits permeabilization by binding full-length caspase 8 cleaved Bid (cBid) and/or full-length untagged Bax, thereby preventing Bax oligomerization in membranes. […] In these assays liposome permeabilization by activated Bax releases the entrapped fluorophore/quencher pair 8-aminonaphthalene-1,3,6-trisulfonic acid (ANTS)/p-xylene-bispyridinium (DPX), resulting in a measurable increase of fluorescence.
(A–E) in vitro reconstitution assay on liposome permeabilization. […] The treated Bcl-xL was then added to reactions containing ANTS-DPX liposomes, 100 nM Bax and 20 nM of either cBid (A,B) or cBidmt1(C,D) at pH 7. Liposome permeabilization was quantified by fluorescence after 5h incubation at 37 °C where 100% release was defined as the fluorescence change due to lipid solubilization with 1% Triton X-100. […] Error bars, std. dev. n = 3. […] Cyto c extra-mito: in the supernatant, analysed by Western blot. […]
Figure 10 A,B) or cBid mt1 (Supplementary Figure 10 C,D) at pH 7 to quantify the activity of Bcl-xL inhibition of liposome permeablization. […]
then added to reactions containing ANTS-DPX liposomes, 100nM Bax and 20nM of either c Bid (A, C) or cBid mt1(B, D) at pH 7 and liposome permeabilization was quantified by fluorescence […]

Bcl-xL = experiment: In cellulo BRET between Luciferase-fused TCTP and YFP-fused Bcl-xL; type: cell-based; conditions: MCF-7 cells; donor Luciferase-fused TCTP, acceptor YFP-fused Bcl-xL
Text: See Supplementary Information for full details.
Twenty-four hours later, cells
Protein expression and purification

Substance: TCTP: Translationally Controlled Tumor Protein (TCTP/tpt1), recombinant full-length
- effect on Bcl-xL inhibition of cBid/Bax-mediated liposome permeabilization [1]: enhanced Bcl-xL inhibition
- BRET signals with Bcl-xL (Bcl-xL): saturable BRET signals
